How the values were obtained:
[1] = molecular target: Tyrosine-protein phosphatase non-receptor type 6 (Homo sapiens, UniProt P29350); assay: Inhibition of SHP1 (unknown origin)
[2] = molecular target: T1, Tyrosine-protein phosphatase non-receptor type 2 (Homo sapiens, UniProt P17706); assay: Inhibition of TCPTP (unknown origin)
T1 sequence (P17706 whole entry): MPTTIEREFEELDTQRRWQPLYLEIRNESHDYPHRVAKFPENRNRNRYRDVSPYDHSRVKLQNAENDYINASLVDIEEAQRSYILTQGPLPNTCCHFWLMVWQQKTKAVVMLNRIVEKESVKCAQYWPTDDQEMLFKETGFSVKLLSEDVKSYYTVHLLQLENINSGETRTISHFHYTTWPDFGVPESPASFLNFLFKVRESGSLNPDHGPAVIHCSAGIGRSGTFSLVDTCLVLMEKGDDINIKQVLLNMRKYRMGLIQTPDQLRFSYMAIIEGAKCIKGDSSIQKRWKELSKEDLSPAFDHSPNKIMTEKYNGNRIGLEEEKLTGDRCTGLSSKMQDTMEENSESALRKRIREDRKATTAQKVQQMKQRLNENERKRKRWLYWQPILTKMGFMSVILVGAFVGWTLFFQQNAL

[3] = molecular target: Receptor-type tyrosine-protein phosphatase F (Homo sapiens, UniProt P10586); assay: Inhibition of LAR (unknown origin)
Receptor-type tyrosine-protein phosphatase F, sequence (P10586 whole entry): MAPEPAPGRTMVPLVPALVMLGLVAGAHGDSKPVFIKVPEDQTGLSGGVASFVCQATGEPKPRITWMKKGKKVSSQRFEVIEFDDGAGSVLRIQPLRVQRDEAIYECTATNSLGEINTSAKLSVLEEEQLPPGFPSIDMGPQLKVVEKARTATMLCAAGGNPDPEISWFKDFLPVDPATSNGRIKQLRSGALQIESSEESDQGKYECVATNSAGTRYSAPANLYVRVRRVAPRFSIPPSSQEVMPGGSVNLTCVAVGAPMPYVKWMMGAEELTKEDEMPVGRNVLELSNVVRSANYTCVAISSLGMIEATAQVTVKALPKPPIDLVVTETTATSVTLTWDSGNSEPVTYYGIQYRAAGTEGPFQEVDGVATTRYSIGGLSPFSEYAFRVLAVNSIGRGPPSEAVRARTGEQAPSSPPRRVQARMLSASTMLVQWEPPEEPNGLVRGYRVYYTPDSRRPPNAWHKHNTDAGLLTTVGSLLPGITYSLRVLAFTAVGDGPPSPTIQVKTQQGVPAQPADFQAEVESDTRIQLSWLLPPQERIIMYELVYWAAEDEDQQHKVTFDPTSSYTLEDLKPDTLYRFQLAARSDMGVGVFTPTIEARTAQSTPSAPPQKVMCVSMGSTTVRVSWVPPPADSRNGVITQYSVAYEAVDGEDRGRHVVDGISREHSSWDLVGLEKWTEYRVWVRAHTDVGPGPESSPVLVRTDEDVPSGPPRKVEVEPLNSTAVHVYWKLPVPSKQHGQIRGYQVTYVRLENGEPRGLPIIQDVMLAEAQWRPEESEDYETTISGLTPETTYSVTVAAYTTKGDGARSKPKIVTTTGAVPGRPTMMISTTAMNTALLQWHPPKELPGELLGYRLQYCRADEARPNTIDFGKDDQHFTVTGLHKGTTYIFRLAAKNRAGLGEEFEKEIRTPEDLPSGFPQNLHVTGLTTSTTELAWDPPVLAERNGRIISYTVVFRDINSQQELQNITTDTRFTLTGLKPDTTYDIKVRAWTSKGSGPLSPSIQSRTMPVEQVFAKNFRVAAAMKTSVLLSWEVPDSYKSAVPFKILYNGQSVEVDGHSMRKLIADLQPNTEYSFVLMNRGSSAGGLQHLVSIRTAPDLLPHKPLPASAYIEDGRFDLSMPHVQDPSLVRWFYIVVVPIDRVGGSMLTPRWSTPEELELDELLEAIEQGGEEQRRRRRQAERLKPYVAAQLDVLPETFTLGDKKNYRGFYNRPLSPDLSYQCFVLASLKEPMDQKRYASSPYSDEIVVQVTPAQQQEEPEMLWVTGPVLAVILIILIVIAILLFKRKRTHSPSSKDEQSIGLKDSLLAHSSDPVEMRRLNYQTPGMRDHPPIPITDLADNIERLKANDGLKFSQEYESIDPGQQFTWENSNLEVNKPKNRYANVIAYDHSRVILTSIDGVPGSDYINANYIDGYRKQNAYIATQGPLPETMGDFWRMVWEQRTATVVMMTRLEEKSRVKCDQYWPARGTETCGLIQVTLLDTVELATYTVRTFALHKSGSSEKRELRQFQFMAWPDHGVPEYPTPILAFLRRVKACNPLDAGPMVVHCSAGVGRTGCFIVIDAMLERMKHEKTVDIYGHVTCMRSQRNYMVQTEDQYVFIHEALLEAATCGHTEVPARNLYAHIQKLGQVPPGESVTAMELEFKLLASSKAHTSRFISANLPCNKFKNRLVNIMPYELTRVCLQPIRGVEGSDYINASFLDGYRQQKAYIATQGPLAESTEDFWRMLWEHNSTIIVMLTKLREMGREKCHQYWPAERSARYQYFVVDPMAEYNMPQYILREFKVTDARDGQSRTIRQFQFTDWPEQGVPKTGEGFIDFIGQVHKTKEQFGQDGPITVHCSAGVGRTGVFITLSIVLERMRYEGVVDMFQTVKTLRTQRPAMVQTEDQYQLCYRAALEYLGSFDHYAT

[4] = molecular target: T2, Tyrosine-protein phosphatase non-receptor type 11 (Homo sapiens, UniProt Q06124); assay: Inhibition of SHP2 (unknown origin)
T2 sequence (Q06124 whole entry): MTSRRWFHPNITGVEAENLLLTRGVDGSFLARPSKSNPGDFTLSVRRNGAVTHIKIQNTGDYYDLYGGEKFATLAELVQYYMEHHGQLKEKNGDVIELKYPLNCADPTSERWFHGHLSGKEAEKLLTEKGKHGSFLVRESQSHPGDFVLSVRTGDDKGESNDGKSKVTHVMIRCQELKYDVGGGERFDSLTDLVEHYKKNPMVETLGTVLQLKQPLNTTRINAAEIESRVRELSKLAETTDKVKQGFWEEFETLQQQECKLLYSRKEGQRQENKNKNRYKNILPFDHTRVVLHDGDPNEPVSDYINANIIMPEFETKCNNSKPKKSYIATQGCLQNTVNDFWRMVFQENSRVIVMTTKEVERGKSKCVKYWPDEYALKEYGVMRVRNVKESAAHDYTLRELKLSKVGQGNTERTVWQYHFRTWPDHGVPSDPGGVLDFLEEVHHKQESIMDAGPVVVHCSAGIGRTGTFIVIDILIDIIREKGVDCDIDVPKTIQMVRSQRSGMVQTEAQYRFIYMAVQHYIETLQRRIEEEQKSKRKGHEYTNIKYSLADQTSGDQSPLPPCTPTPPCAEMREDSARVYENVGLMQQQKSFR

[5] = molecular target: T3, Tyrosine-protein phosphatase non-receptor type 1 (Homo sapiens, UniProt P18031); assay: Inhibition of PTP1B (unknown origin)
T3 sequence (P18031 whole entry): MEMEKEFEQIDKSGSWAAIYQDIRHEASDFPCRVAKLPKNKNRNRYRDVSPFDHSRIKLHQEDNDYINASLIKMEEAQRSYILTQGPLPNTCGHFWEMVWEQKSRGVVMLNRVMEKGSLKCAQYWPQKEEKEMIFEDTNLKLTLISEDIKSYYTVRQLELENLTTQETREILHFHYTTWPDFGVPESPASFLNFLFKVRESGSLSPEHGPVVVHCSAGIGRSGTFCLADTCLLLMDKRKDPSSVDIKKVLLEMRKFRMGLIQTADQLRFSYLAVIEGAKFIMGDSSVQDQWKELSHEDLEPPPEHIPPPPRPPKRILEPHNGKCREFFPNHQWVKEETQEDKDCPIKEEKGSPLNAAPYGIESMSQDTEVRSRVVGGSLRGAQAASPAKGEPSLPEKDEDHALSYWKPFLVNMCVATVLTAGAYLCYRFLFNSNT

Homo sapiens = species on record: Homo sapiens; assay: Selectivity ratio of IC50 for TCPTP (unknown origin) to IC50 for PTP1B (unknown origin)

Tyrosine-protein phosphatase non-receptor type 6, sequence (P29350 whole entry): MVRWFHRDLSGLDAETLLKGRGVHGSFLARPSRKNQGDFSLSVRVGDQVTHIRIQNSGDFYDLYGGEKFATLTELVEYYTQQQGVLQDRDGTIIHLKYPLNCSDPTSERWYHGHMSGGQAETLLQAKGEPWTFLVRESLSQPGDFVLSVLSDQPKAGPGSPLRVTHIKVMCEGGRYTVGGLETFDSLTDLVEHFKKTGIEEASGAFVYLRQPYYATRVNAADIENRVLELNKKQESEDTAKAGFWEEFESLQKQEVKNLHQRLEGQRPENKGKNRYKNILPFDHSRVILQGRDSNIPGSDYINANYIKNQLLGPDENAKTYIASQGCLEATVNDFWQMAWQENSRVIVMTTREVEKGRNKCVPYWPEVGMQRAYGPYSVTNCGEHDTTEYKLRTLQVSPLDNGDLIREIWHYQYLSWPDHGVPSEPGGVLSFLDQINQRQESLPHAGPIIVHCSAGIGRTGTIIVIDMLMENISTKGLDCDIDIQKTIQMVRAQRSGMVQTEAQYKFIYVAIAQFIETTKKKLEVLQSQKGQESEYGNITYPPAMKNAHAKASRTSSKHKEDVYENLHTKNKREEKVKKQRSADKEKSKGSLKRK

Row | SMILES | IC50 ([1]; read-out: IC50) | IC50 [2] | IC50 [3] | IC50 ([4]; read-out: IC50) | IC50 ([5]; read-out: IC50) | IC50 [1] | IC50 [4] | Ratio IC50 (Homo sapiens) | IC50 [5]
1 | O=C(OC1CSSC1)c1ccc(C#CCCCCOC(=O)c2ccccc2[N+](=O)[O-])cc1 | 9.25 µM | 7.83 µM | Not Active | 11.5 µM | 9.12 µM |  |  |  | 
2 | O=C(OC1CSSC1)c1ccc(CCCCCCOC(=O)c2cc(Br)ccc2Br)cc1 | 11.1 µM | 17.4 µM | Not Active | 9.69 µM | 2.68 µM |  |  | > 6 | 
3 | O=C(OC1CSSC1)c1ccc(OCCCOC(=O)c2cc(Br)ccc2Br)cc1 | 32.2 µM | 27.6 µM | Not Active | 10.9 µM |  |  |  |  | Not Active
4 | COc1cccc(C(=O)OCCCCC#Cc2ccc(C(=O)OC3CSSC3)cc2)c1 | 38.4 µM | 26.3 µM | Not Active | 34.6 µM | 26.3 µM |  |  |  | 
5 | COc1ccc(C(=O)OCCCCC#Cc2ccc(C(=O)OC3CSSC3)cc2)c(OC)c1 |  | 20 µM | Not Active |  | 4.27 µM | Not Active | Not Active | 5 | 
6 | O=C(OC1CSSC1)c1ccc(C#CCCOC(=O)c2cc(Br)ccc2Br)cc1 | 15.7 µM | 26.7 µM | Not Active | 8.25 µM | 2.73 µM |  |  | 10 | 
7 | O=C(OCCCCC#Cc1ccc(C(=O)OC2CSSC2)cc1)c1cccc([N+](=O)[O-])c1 | 23.6 µM | 12.9 µM | Not Active | 22.3 µM | 9.7 µM |  |  |  | 

The remaining molecules from weak to strong by IC50 [2], led by results:

Row | IC50 ([1]; read-out: IC50) | IC50 [2] | IC50 [3] | IC50 ([4]; read-out: IC50) | IC50 ([5]; read-out: IC50) | IC50 [1] | IC50 [4] | Ratio IC50 (Homo sapiens) | IC50 [5] | SMILES
8 |  | 35 µM | Not Active |  | 7.26 µM | Not Active | Not Active |  |  | O=C(OC1CSSC1)c1ccc(OCCOC(=O)c2cc(Br)ccc2Br)cc1
9 |  | 30.8 µM | Not Active |  | 8.85 µM | Not Active | Not Active |  |  | O=C(OC1CSSC1)c1ccc(OCCCCCCOC(=O)c2cc(Br)ccc2Br)cc1
10 | 19.3 µM | 23.2 µM | Not Active | 18.3 µM | 23.5 µM |  |  |  |  | COc1ccccc1C(=O)OCCCCC#Cc1ccc(C(=O)OC2CSSC2)cc1
11 | 24.9 µM | 9.46 µM | Not Active | 24.6 µM | 10.1 µM |  |  |  |  | O=C(OCCCCC#Cc1ccc(C(=O)OC2CSSC2)cc1)c1ccc([N+](=O)[O-])cc1
12 | 10 µM | 9.21 µM | Not Active | 8.91 µM | 5.18 µM |  |  |  |  | O=C(OCCCCC#Cc1ccc(C(=O)OC2CSSC2)cc1)c1cccc(F)c1
13 | 8.67 µM | 6.48 µM | Not Active | 10.5 µM | 4.43 µM |  |  |  |  | O=C(OC1CSSC1)c1ccc(C#CCCCCOC(=O)c2ccccc2F)cc1
14 | 5.13 µM | 4.58 µM | Not Active | 6.64 µM | 6.55 µM |  |  |  |  | COc1ccc(C(=O)OCCCCC#Cc2ccc(C(=O)OC3CSSC3)cc2)cc1
15 | 9.21 µM | 4.36 µM | Not Active | 9.41 µM | 4.68 µM |  |  |  |  | O=C(OCCCCC#Cc1ccc(C(=O)OC2CSSC2)cc1)c1ccc(F)cc1
16 |  | 1.88 µM | Not Active | 13.2 µM | 0.59 µM | Not Active |  | 3 |  | O=C(OC1CSSC1)c1ccc(C#CCCCCOC(=O)c2cc(Br)ccc2Br)cc1
